In US11572350B1, “Benzothia(di)azepine compounds and their use as bile acid modulators” (Albireo AB, priority 2020, dated 2023) one finds IC50, Papp A→B and Papp B→A data, which are given here for ten compounds.

In one data set the target is T1, human LBAT (Homo sapiens, UniProt Q14973).
T1 construct: expressed in transfected cells; kept under Geneticin selection
T1 sequence (Q14973 1-349): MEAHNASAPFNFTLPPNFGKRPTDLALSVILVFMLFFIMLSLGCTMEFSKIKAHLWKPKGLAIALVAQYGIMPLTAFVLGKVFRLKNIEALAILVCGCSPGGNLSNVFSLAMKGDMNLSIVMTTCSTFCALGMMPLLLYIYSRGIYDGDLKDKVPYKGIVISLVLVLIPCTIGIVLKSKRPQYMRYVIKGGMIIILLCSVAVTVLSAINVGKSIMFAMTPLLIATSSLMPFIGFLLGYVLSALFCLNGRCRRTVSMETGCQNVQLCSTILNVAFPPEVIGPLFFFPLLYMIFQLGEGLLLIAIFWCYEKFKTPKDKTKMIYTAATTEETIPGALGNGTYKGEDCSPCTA
The data set is described as follows: LBAT (h/m) assay: 3H-taurocholic acid uptake in human LBAT-overexpressing cells. In kind it is cell-based. The note with it: 0.3 μM 3H-taurocholic acid and 7.5 μM cold taurocholic acid, 20 minutes, read-out: hLBAT IC50. As for the experimental part: LBAT (h/m) Assay Protocol
20,000 cells (Human or Mouse LBAT-overexpressing cells) were seeded in 96-wells plate (Corning CLS3809) in 100 μL MEM-alpha medium (Gibco 12571-063) supplemented with 10% FBS (Gibco 10438026) containing Geneticin (Gibco 10131-027) (1 mg/mL) and incubated at 37° C. in 5% CO2 for 24 hours. After incubation, media was decanted from the wells and cells were washed two times with 300 μL of basal MEM-alpha medium (FBS-free). After decanting basal MEM-alpha medium each time, plates were tapped against paper towel to ensure maximum removal of residual media. For human LBAT, incubation mix was prepared by adding test inhibitor dilutions (3-fold serial dilution in DMSO (Sigma D2650), 10 points) in MEM-alpha (without FBS) containing 0.3 μM 3H-taurocholic acid (ARC ART-1368) and 7.5 μM cold taurocholic acid (Sigma T4009) (maintaining 0.2% final DMSO concentration). For mouse LBAT, incubation mix was prepared by adding test inhibitor dilutions (3-fold serial dilution in DMSO, 10 points) in MEM-alpha (without FBS) containing 0.3 μM 3H-taurocholic acid and 25 μM cold taurocholic acid maintaining 0.2% final DMSO concentration). 50 μL of incubation mix containing test inhibitors was then added to the wells (in duplicate) and the plates were incubated for 20 minutes in a CO2 incubator at 37° C. After incubation, the reaction was stopped by keeping the plates on ice water mix for 2-3 minutes and then the incubation mix was aspirated completely from the wells. The wells were washed two times with 250 μL of chilled unlabelled 1 mM taurocholic acid dissolved in HEPES (Gibco 15630080)-buffered (10 mM) HBSS (Gibco 14175079) (pH 7.4). The plates were tapped against a paper towel after every wash to ensure maximum removal of blocking buffer.
100 μL of MicroScint-20 (PerkinElmer 6013621) was added to the wells and kept overnight at room temperature before reading the plates in TopCount NXT™ Microplate Scintillation and Luminescence Counter from PerkinElmer under 3H Test protocol (set at 120 seconds reading time per well, with normal plate orientation).
(§1) Preparation of Test Compound Dilutions
(§2) All test compounds were provided in powder form at room temperature. 10 mM DMSO stocks of the test compounds were prepared, aliquoted and stored at −20° C. From the 10 mM DMSO stock of the compounds, a 3-fold serial dilution in DMSO was prepared to get a total of 10 dilutions of the test compounds. 0.5 μL of this dilution in DMSO was added to 250 μL of FBS-free basal media containing 3H-taurocholic acid and cold taurocholic acid to prepare the incubation mixture.

For a further data set, the target named is T2, human IBAT (Homo sapiens, UniProt Q12908).
T2 construct: expressed in transfected cells; kept under Puromycin selection
T2 sequence (Q12908 1-348): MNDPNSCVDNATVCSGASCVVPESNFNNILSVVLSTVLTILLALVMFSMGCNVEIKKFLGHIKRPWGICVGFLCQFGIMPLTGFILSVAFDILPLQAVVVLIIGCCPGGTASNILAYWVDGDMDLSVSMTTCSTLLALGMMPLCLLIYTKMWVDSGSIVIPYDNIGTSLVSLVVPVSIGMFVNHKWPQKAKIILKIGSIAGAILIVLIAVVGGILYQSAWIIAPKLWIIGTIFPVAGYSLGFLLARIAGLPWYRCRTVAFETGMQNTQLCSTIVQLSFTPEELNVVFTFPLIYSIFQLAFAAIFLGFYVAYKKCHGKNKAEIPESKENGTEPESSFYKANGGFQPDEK
Briefly: IBAT (h/m) assay: 3H-taurocholic acid uptake in human IBAT-overexpressing cells. Format: cell-based. The note with it: 0.25 μM 3H-taurocholic acid and 5 μM cold taurocholic acid, 20 minutes, highest test concentration 10 μM, read-out: hIBAT IC50. The protocol: IBAT (h/m) Assay Protocol
10,000 cells (Human or Mouse IBAT-overexpressing cells) were seeded in 96-wells plate (Corning CLS3809) in 200 μL MEM-alpha medium (Gibco 12571-063) supplemented with 10% FBS (Gibco 10438026) containing Puromycin (Gibco A1113803) (10 μg/mL) and incubated at 37° C. in 5% CO2 for 48 hours. After incubation, media was decanted from the wells and cells were washed two times with 300 μL of basal MEM-alpha medium (FBS-free). After decanting basal MEM-alpha medium each time, plates were tapped against paper towel to ensure maximum removal of residual media. Test inhibitor dilutions (highest test concentration being 10 μM, 3-fold serial dilution, 10 points) prepared in DMSO (Sigma D2650) were added in incubation mix (maintaining 0.2% final DMSO concentration) containing 0.25 μM 3H-taurocholic acid (ARC ART-1368) and 5 μM of cold taurocholic acid (Sigma T4009). 50 μL of incubation mix containing test inhibitors was then added to the wells (in duplicate) and the plates were incubated for 20 minutes in a CO2 incubator at 37° C. After incubation, the reaction was stopped by keeping the plates on ice water mix for 2-3 minutes and then the incubation mix was aspirated completely from the wells. The wells were washed two times with 250 μL of chilled unlabelled 1 mM taurocholic acid dissolved in HEPES (Gibco 15630080)-buffered (10 mM) HBSS (Gibco 14175079) (pH 7.4). The plates were tapped against a paper towel after every wash to ensure maximum removal of blocking buffer.
100 μL of MicroScint-20 (PerkinElmer 6013621) was added to the wells and kept overnight at room temperature before reading the plates in TopCount NXT™ Microplate Scintillation and Luminescence Counter from PerkinElmer under 3H Test protocol (set at 120 seconds reading time per well).
as §1, §2

Data set [1] can be described thus: Bidirectional permeability assay (Caco-2 cells). Format: in vitro ADME. The note with it: human, FaSSIF donor buffer, 120 minutes at 37° C.; for Papp A→B at 120 min, 10 µM: Caco-2, pH 7.4, absorptive direction (A2B); for Papp B→A at 120 min, 10 µM: Caco-2, pH 7.4, secretory direction (B2A). An excerpt:
Bidirectional Permeability Assay (Caco-2 Cells)
HepaRG-Based Assay Protocol
In general terms: Caco-2 cells form a polarised layer with tight junctions and transporters.

One may read the IC50 as the concentration at which inhibition is half-maximal. Usually Papp A→B stands for the apparent permeability from the apical to the basolateral side of a cell layer. A high value points to fast passage. A word on the Papp B→A: it is the apparent permeability from the basolateral to the apical side of a cell layer. Turning to `CCCCC1CN(c2ccc(F)cc2)c2cc(SC)c(O/C=C/C(=O)O)cc2S(=O)(=O)N1` (racemic) [Example 1, (E)-3-((3-Butyl-5-(4-fluorophenyl)-7-(methylthio)-1,1-dioxido-2,3,4,5-tetrahydro-1,2,5-benzothiadiazepin-8-yl)oxy)acrylic acid], on human LBAT, the IC50 worked out at 1 nM. The IC50 on human IBAT amounted to 1670 nM. In data set [1], this compound registered a Papp A→B at 120 min, 10 µM of 7.3 ×10⁻⁶ cm/s and an apparent permeability from basolateral to apical (Papp B→A) at 120 min, 10 µM of 17.2 ×10⁻⁶ cm/s.

Take `CCCCC1CN(c2ccc(F)cc2)c2cc(SCC)c(O/C=C/C(=O)O)cc2S(=O)(=O)C1` (racemic) [Example 7, (E)-3-((3-Butyl-7-(ethylthio)-5-(4-fluorophenyl)-1,1-dioxido-2,3,4,5-tetrahydro-1,5-benzothiazepin-8-yl)oxy)acrylic acid]: the IC50 on human LBAT was 2.6 nM; on human IBAT it was greater than 10000 nM. The Papp A→B at 120 min, 10 µM in data set [1] was determined as 11.3 ×10⁻⁶ cm/s. Also, the Papp B→A at 120 min, 10 µM in data set [1] came to 8.9 ×10⁻⁶ cm/s.

Consider `CCCCC1CN(c2ccc(F)cc2)c2cc(SC)c(O/C=C(\F)C(=O)O)cc2S(=O)(=O)C1` (racemic) [Example 10, (Z)-3-((3-butyl-5-(4-fluorophenyl)-7-(methylthio)-1,1-dioxido-2,3,4,5-tetrahydro-1,5-benzothiazepin-8-yl)oxy)-2-fluoroacrylic acid], for which, at human LBAT, the IC50 amounted to 1.6 nM. Further, the half-maximal inhibitory concentration (IC50) on human IBAT is 827 nM. Besides, in data set [1], the Papp A→B at 120 min, 10 µM worked out at 2.9 ×10⁻⁶ cm/s and the apparent permeability from basolateral to apical (Papp B→A) at 120 min, 10 µM was 8.5 ×10⁻⁶ cm/s.

Turning to `CCCCC1CN(c2ccc(F)cc2)c2cc(SCC)c(O/C=C(\F)C(=O)O)cc2S(=O)(=O)C1` (racemic) [Example 16, (Z)-3-((3-butyl-7-(ethylthio)-5-(4-fluorophenyl)-1,1-dioxido-2,3,4,5-tetrahydro-1,5-benzothiazepin-8-yl)oxy)-2-fluoroacrylic acid], the 50% inhibitory concentration (IC50) on human LBAT is 2.5 nM; on human IBAT, 1380 nM. Moreover, the Papp A→B at 120 min, 10 µM in data set [1] is 1 ×10⁻⁶ cm/s. In data set [1], this compound displayed a Papp B→A at 120 min, 10 µM of 3.6 ×10⁻⁶ cm/s.

Turning to `CCCCC1CN(c2ccc(F)cc2)c2cc(SC)c(O/C=C(\F)C(=O)O)cc2S(=O)(=O)N1C` (racemic) [Example 19, (Z)-3-((3-butyl-5-(4-fluorophenyl)-2-methyl-7-(methylthio)-1,1-dioxido-2,3,4,5-tetrahydro-1,2,5-benzothiadiazepin-8-yl)oxy)-2-fluoroacrylic acid], the IC50 on human LBAT was found to be 1.9 nM. Besides, at human IBAT, the IC50 was determined as 248 nM. In data set [1], this compound came in with a Papp A→B at 120 min, 10 µM of 4.3 ×10⁻⁶ cm/s and a Papp B→A at 120 min, 10 µM of 6.1 ×10⁻⁶ cm/s.

On to `CCCCC1CN(c2ccc(F)cc2)c2cc(SCC)c(O/C=C/C(=O)O)cc2S(=O)(=O)N1` (racemic) [Example 30, (E)-3-((3-butyl-7-(ethylthio)-5-(4-fluorophenyl)-1,1-dioxido-2,3,4,5-tetrahydro-1,2,5-benzothiadiazepin-8-yl)oxy)acrylic acid], for which the IC50 on human LBAT worked out at 2.6 nM. Further, at human IBAT, the IC50 was 4100 nM. In data set [1], the Papp A→B at 120 min, 10 µM worked out at 6.5 ×10⁻⁶ cm/s and the Papp B→A at 120 min, 10 µM came to 8.7 ×10⁻⁶ cm/s.

`CCCCC1CN(c2ccc(F)cc2)c2cc(SCC)c(O/C=C/C(=O)O)cc2S(=O)(=O)C1` (single isomer, unassigned) [Example 9, (E)-3-((3-butyl-7-(ethylthio)-5-(4-fluorophenyl)-1,1-dioxido-2,3,4,5-tetrahydro-1,5-benzothiazepin-8-yl)oxy)acrylic acid]: the IC50 at human LBAT is 2 nM. Further, in data set [1], the Papp A→B at 120 min, 10 µM was found to be 15.5 ×10⁻⁶ cm/s and the Papp B→A at 120 min, 10 µM is 18.6 ×10⁻⁶ cm/s.

As for `CCCCC1CN(c2ccc(F)cc2)c2cc(SCC)c(O/C=C(\F)C(=O)O)cc2S(=O)(=O)C1` (single isomer, unassigned) [Example 18, (Z)-3-((3-butyl-7-(ethylthio)-5-(4-fluorophenyl)-1,1-dioxido-2,3,4,5-tetrahydro-1,5-benzothiazepin-8-yl)oxy)-2-fluoroacrylic acid], at human LBAT, the IC50 is 2.6 nM. Moreover, the IC50 at human IBAT worked out at 647 nM. In data set [1], this compound came in with a Papp A→B at 120 min, 10 µM of 1.1 ×10⁻⁶ cm/s and a Papp B→A at 120 min, 10 µM of 3.1 ×10⁻⁶ cm/s.

Consider `CCCCC1CN(c2ccc(F)cc2)c2cc(SC)c(O/C=C(\F)C(=O)O)cc2S(=O)(=O)N1C` (single isomer, unassigned) [Example 20, (Z)-3-((3-butyl-5-(4-fluorophenyl)-2-methyl-7-(methylthio)-1,1-dioxido-2,3,4,5-tetrahydro-1,2,5-benzothiadiazepin-8-yl)oxy)-2-fluoroacrylic acid], for which the half-inhibitory concentration (IC50) on human LBAT stood at 0.8 nM. Further, the IC50 at human IBAT worked out at 135 nM. In data set [1], the Papp A→B at 120 min, 10 µM is 2.7 ×10⁻⁶ cm/s and the Papp B→A at 120 min, 10 µM is 10.5 ×10⁻⁶ cm/s.

On to `CCCCC1CN(c2ccccc2)c2cc(SCC)c(O/C=C(\F)C(=O)O)cc2S(=O)(=O)N1C` (single isomer, unassigned) [Example 25, (Z)-3-((3-butyl-7-(ethylthio)-2-methyl-1,1-dioxido-5-phenyl-2,3,4,5-tetrahydro-1,2,5-benzothiadiazepin-8-yl)oxy)-2-fluoroacrylic acid], for which the IC50 on human LBAT is 0.9 nM; on human IBAT it was 431 nM. For the same compound, the Papp A→B at 120 min, 10 µM in data set [1] stood at 1.9 ×10⁻⁶ cm/s. For the same compound, the Papp B→A at 120 min, 10 µM in data set [1] was found to be 3.9 ×10⁻⁶ cm/s.
